# Assay results taken from patent US20220274979A1 (Bayer Pharma Aktiengesellschaft, priority 2018, published 2022).
# Target: T1, hSOS1 (hSOS1-mediated nucleotide exchange of hK-RasG12C) (Homo sapiens, UniProt Q07889)
# T1 construct: hSOS1 (amino acid 564-1049); made in house; host or cells: E. coli BL21 (DE3)
# T1 sequence (Q07889 with tags, fused parts or gaps): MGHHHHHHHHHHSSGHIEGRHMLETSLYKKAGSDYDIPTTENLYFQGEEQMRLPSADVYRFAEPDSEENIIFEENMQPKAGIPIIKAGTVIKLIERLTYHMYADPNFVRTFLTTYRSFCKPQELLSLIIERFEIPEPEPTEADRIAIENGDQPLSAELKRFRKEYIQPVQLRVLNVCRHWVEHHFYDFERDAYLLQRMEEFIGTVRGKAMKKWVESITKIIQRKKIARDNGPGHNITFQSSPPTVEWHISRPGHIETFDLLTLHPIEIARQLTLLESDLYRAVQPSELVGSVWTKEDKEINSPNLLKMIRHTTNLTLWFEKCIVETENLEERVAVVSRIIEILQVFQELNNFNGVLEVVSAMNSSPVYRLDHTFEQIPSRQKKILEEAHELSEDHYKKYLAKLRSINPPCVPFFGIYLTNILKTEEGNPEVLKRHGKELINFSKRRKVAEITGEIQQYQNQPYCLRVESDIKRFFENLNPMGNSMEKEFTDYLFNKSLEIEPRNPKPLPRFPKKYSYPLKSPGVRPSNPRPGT
# Test: Biochemical Assay 2: hK-RasG12C activation assay by hSOS1 at high GTP concentration (HTRF nucleotide exchange)
# Details: high GTP (50 μM GTP)
row,Compound,IC50 [nM]
1,"Cc1nc(NC(C)c2ccc(-c3ccccc3CN(C)C)s2)c2cc(NCCn3ccnc3)ncc2n1 (stereo not shown) [Example 56, N4-[1-(5-{2-[(dimethylamino)methyl]phenyl}-2-thienyl)ethyl]-N6-[2-(1H-imidazol-1-yl)ethyl]-2-methylpyrido[3,4-d]pyrimidine-4,6-diamine]",93.9
2,"Cc1nc(NC(C)c2ccc(-c3ccccc3CN(C)C)s2)c2cc(NCCn3cccn3)ncc2n1 (stereo not shown) [Example 54, N4-[1-(5-{2-[(dimethylamino)methyl]phenyl}-2-thienyl)ethyl]-2-methyl-N6-[2-(1H-pyrazol-1-yl)ethyl]pyrido[3,4-d]pyrimidine-4,6-diamine]",161
3,"Cc1nc(NC(C)c2ccc(-c3ccccc3CO)s2)c2cc(F)ncc2n1 (stereo not shown) [Example 68, [2-(5-{1-[(6-fluoro-2-methylpyrido[3,4-d]pyrimidin-4-yl)amino]ethyl}thiophen-2-yl)phenyl]methanol]",> 20000
4,"Cc1nc(NC(C)c2ccc(-c3ccccc3CN(C)C)s2)c2cc(OCCCO)ncc2n1 (stereo not shown) [Example 76, 3-[(4-{[1-(5-{2-[(dimethylamino)methyl]phenyl}thiophen-2-yl)ethyl]amino}-2-methylpyrido[3,4-d]pyrimidin-6-yl)oxy]propan-1-ol]",49.9
5,"CNCc1ccccc1-c1ccc(C(C)Nc2nc(C)nc3cnc(F)cc23)s1 (stereo not shown) [Example 36, 6-fluoro-2-methyl-N-[1-(5-{2-[(methylamino)methyl]phenyl}thiophen-2-yl)ethyl]pyrido[3,4-d]pyrimidin-4-amine]",19000
6,"Cc1nc(N[C@H](C)c2cccc(Br)c2)c2cc(N3CCN(Cc4cccnc4)CC3)ncc2n1 [Example 43, N-[(1R)-1-(3-bromophenyl)ethyl]-2-methyl-6-[4-(pyridin-3-ylmethyl)piperazin-1-yl]pyrido[3,4-d]pyrimidin-4-amine]",380
7,"COCCOc1ncc2nc(C)nc(N[C@H](C)c3cccc(Br)c3)c2n1 [Example 26, N-[(1R)-1-(3-bromophenyl)ethyl]-6-(2-methoxyethoxy)-2-methylpyrimido[5,4-d]pyrimidin-4-amine]",3040
8,"Cc1nc(NC(C)c2ccc(-c3ccccc3CN(C)C)s2)c2cc(OCCCN(C)C)ncc2n1 (stereo not shown) [Example 72, N-[1-(5-{2-[(dimethylamino)methyl]phenyl}thiophen-2-yl)ethyl]-6-[3-(dimethylamino)propoxy]-2-methylpyrido[3,4-d]pyrimidin-4-amine]",42.1
9,"COc1cc2c(NC(C)c3cccc4nn(C)cc34)nc(C)nc2cn1 (stereo not shown) [Example 17, 6-methoxy-2-methyl-N-[1-(2-methyl-2H-indazol-4-yl)ethyl]pyrido[3,4-d]pyrimidin-4-amine]",7730
10,"Cc1nc(N[C@H](C)c2cccc(Br)c2)c2nc(Oc3ccccc3)ccc2n1 [Example 32, N-[(1R)-1-(3-bromophenyl)ethyl]-2-methyl-6-phenoxypyrido[3,2-d]pyrimidin-4-amine]",> 20000
11,"Cc1nc(N[C@H](C)c2cccc(Br)c2)c2cc(OCCN(C)C)ncc2n1 [Example 78, N-[(1R)-1-(3-bromophenyl)ethyl]-6-[2-(dimethylamino)ethoxy]-2-methylpyrido[3,4-d]pyrimidin-4-amine]",1040
12,"Cc1nc(NC(C)c2ccc(-c3ccccc3CN(C)C)s2)c2cc(N3CC(NC(=O)Nc4ccccc4)C3)ncc2n1 (stereo not shown) [Example 96, 1-[1-(4-{[1-(5-{2-[(dimethylamino)methyl]phenyl}thiophen-2-yl)ethyl]amino}-2-methylpyrido[3,4-d]pyrimidin-6-yl)azetidin-3-yl]-3-phenylurea]",226
13,Cc1nc(N[C@H](C)c2ccc(F)cc2)c2cc(OC(C)C)ncc2n1 [Example 15],1900
14,"CCOc1cc2c(N[C@H](C)c3cccc(S(C)(=O)=O)c3)nc(C)nc2cn1 [Example 7, 6-ethoxy-2-methyl-N-{(1R)-1-[3-(methylsulfonyl)phenyl]ethyl}pyrido[3,4-d]pyrimidin-4-amine]",1300
15,"COc1ncc2nc(C)nc(N[C@H](C)c3cccc(Br)c3)c2n1 [Example 24, N-[(1R)-1-(3-bromophenyl)ethyl]-6-methoxy-2-methylpyrimido[5,4-d]pyrimidin-4-amine]",9710
16,"Cc1nc(NC(C)c2ccc(-c3ccccc3CN(C)C)s2)c2cc(N3CC(NC(=O)Cc4ccccc4)C3)ncc2n1 (stereo not shown) [Example 89, N-[1-(4-{[1-(5-{2-[(dimethylamino)methyl]phenyl}thiophen-2-yl)ethyl]amino}-2-methylpyrido[3,4-d]pyrimidin-6-yl)azetidin-3-yl]-2-phenylacetamide]",111
17,Cc1nc(NC(C)c2ccc(Br)s2)c2cc(F)ncc2n1 (stereo not shown) [Example 35],> 20000
18,"Cc1nc(N[C@H](C)c2cccc(Br)c2)c2nc(N3CCOCC3)ncc2n1 [Example 22, N-[(1R)-1-(3-bromophenyl)ethyl]-2-methyl-6-(morpholin-4-yl)pyrimido[5,4-d]pyrimidin-4-amine]",1960
19,"CCOc1ncc2nc(C)nc(N[C@H](C)c3cccc(Br)c3)c2n1 [Example 23, N-[(1R)-1-(3-bromophenyl)ethyl]-6-ethoxy-2-methylpyrimido[5,4-d]pyrimidin-4-amine]",4450
20,Cc1nc(N[C@H](C)c2cccc(Br)c2)c2cc(NCCN3CCOCC3)ncc2n1 [Example 39],1360
21,"Cc1nc(NC(C)c2ccc(-c3ccccc3CN(C)C)s2)c2cc(N3CC(NC(=O)CC4CC4)C3)ncc2n1 (stereo not shown) [Example 91, 2-cyclopropyl-N-[1-(4-{[1-(5-{2-[(dimethylamino)methyl]phenyl}thiophen-2-yl)ethyl]amino}-2-methylpyrido[3,4-d]pyrimidin-6-yl)azetidin-3-yl]acetamide]",137
22,COc1cc2c(N[C@H](C)c3ccc(F)c(Cl)c3)nc(C)nc2cn1 [Example 8],4890
23,"Cc1nc(NC(C)c2ccc(-c3ccccc3CN(C)C)s2)c2cc(Oc3cccc(O)c3)ncc2n1 (stereo not shown) [Example 52, 3-[(4-{[1-(5-{2-[(dimethylamino)methyl]phenyl}thiophen-2-yl)ethyl]amino}-2-methylpyrido[3,4-d]pyrimidin-6-yl)oxy]phenol]",856
24,Cc1nc(N[C@H](C)c2cccc(Br)c2)c2cc(NC3CCOCC3)ncc2n1 [Example 46],4220
25,"Cc1nc(NC(C)c2ccc(-c3ccccc3CN(C)C)s2)c2cc(Oc3cccc(C4=NCCN4C)c3)ncc2n1 (stereo not shown) [Example 58, N-[1-(5-{2-[(dimethylamino)methyl]phenyl}thiophen-2-yl)ethyl]-2-methyl-6-[3-(1-methyl-4,5-dihydro-1H-imidazol-2-yl)phenoxy]pyrido[3,4-d]pyrimidin-4-amine]",141
